Key:
[1] = molecular target: T1, purified recombinant p38 (6×His-p38 expressed in E.coli) (Homo sapiens, UniProt Q16539); experiment: p38 Inhibition In-Vitro Enzyme Assay; format: biochemical; conditions: myelin basic protein substrate, 33P-ATP; for inhibition at 10 µM: read-out: % p38 inhib @ 10 μM
T1 construct: 6xHis; made in house; host or cells: E. coli
Description: A. p38 Inhibition In-Vitro Enzyme Assay
A solution (38 μL) of purified recombinant p38 (6×His-p38 expressed in E.coli), myelin basic protein substrate (determined empirically), and a buffer of pH 7.5 (Hepes:25 mM, MgCl2:10 mM, MnCl2:10 mM) were added to 92 wells of a 96-well round bottom polypropylene plate. The amount of enzyme was determined empirically based on the linear range of the assay and the acceptable signal to noise ratio. The remaining wells were used for control “CTRL”) and background (“BKG”). The CTRL was prepared with the enzyme, substrate buffer and 2% DMSO, and the BKG was prepared with substrate buffer and 2% DMSO.
A solution (12 μL) of the test compound in DMSO was added to the testing wells. […] The ATP/^33P-ATP solution (10 μL containing 50 μM unlabeled ATP and 1 μCi ^33P-ATP) was added to all wells and the completed plates were mixed and incubated at 30° C. for 30 min. Ice-cold 50% TCA/10 mM sodium phosphate (60 μL) was added to each well and the plates were kept on ice for 15 min. The contents of each well were transferred to the wells of a 96-well filterplate (Millipore, MultiScreen-DP) and the filterplate was placed on a vacuum manifold fitted with a waste collection tray. The wells were washed five times with 10% TCA/10 mM sodium phosphate (200 μL) under vacuum. MicroScint-20 scintillant was added, and the plates were sealed using Topseal-S sheets and counted in a Packard TopCount scintillation counter using a ^33P liquid program with color quench correction, where the output is in color quench-corrected cpm. The % inhibition of each test compound as shown in Table 2 was calculated by the following formula: % inhibition=[1−(sample−BKG)/(CTRL−BKG)]×100.
[…] In addition, the IC50 was calculated for some compounds using the Deltagraph 4-parameter curve-fitting program.

[2] = tested on: LPS-induced TNF-α production; experiment: In Vivo Rodent Assay for Inhibition of TNF-α Production (mice); parameters: species or system Mice (BALB/cJ females); conditions: oral dosing, LPS 1 mg/kg i.p., serum TNF-α
Description: C. In Vivo Rodent Assay for Inhibition of TNF-α Production
Mice (BALB/cJ females, Jackson Laboratories) or rats (Lewis males, Charles River) were fasted for 30 min prior to oral dosing with 5-10 mL/kg of test compound at 5-50 mg/kg. Thirty minutes after dosing, the animals were injected intraperitoneally with LPS at 1 mg/kg and returned to their cages for 1 h. Animals were anesthetized by CO2, exsanguinated by cardiac puncture and whole blood collected (0.1-0.7 mL). The blood was allowed to clot and serum was transferred to a centrifuge tube. This sample was centrifuged, and serum was collected, aliquoted and frozen at −80° C. Samples were tested by commercial ELISA's for TNF-α (Endogen for mouse TNF-α and Biosource for rat TNF-α).

TNF-α production = experiment: In-Vitro Whole Cell Assay for TNF-α Inhibition (LPS-stimulated PBMC, ELISA); format: cell-based; conditions: LPS overnight, TNF-α by ELISA
Description: B. In-Vitro Whole Cell Assay for TNF-α Inhibition
Freshly obtained venous blood was anticoagulated with heparin, diluted with an equal volume of phosphate buffered saline (“PBS”) and placed in a sterile tube or other container. Aliquots (30 mL) of this mixture were transferred to centrifuge tubes which were underlaid with Ficoll-Hypaque (15 mL). The prepared tubes were centrifuged at 400×g, without braking, for 30 min at room temperature. Approximately ½ to ⅔ of the platelet layer above the mononuclear cell band was removed with a pipette. The majority of the mononuclear cell layer was carefully removed using a pipette and these PBMC's were diluted with PBS and spun at 600×g for 15 min. The resulting PBMC's were washed with another portion of PBS and spun at 400×g for 10 min at room temperature. The recovered pellets were diluted in low endotoxin RPMI/1% FCS culture medium, and gave a cell concentration of 0.5-2.0×10^6 PMBC/mL. A small volume of the suspension was removed for counting on a hemocytometer and the remaining preparation was centrifuged at 200×g for 15 min at room temperature. The recovered pelleted PMBC's were resuspended in RPMI/1% FCS to a concentration of 1.67×10^6/mL.
To run the assay, the PBMC suspension (180 μL) was transferred to duplicate wells of a 96-well flat-bottom microtiter plate and incubated for 1 h at 37° C. A solution of test compound (10 μL: prepared at 20× the desired final concentration) was added to each well and the plate was incubated for 1 h at 37° C. A solution (10 μL) of LPS in RPMI/1% FCS (200 ng/mL) was added and the wells were incubated overnight at 37° C. The supernate (100 μL) was removed from each well and diluted with RPMI/1% FCS (400 μL). The samples were analyzed for TNF-α using a commercial ELISA kit (Genzyme).
The compounds were tested for their ability to inhibit TNF-α production. The IC50 nM results are listed for the indicated compounds.

T1 sequence (Q16539 whole entry): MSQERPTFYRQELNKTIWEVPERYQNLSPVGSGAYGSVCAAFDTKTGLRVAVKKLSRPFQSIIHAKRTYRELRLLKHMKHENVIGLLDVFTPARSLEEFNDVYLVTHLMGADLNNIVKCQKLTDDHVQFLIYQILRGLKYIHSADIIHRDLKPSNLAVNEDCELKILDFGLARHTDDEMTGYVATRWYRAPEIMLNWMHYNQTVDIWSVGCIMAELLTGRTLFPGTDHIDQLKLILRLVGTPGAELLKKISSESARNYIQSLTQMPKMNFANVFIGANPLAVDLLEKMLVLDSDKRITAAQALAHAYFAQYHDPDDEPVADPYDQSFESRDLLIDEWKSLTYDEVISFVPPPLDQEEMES

| inhibition at 10 µM [1] [%] | Compound | % p38 inhib @ 10 μM [1] [%] | TNF-α % Inhibition Mouse ([2]; 10 mg/kg) [%] | TNF-α % Inhibition Mouse ([2]; 25 mg/kg) [%] | IC50 (TNF-α production) [nM] | inhibition in vivo at 10 mg/kg ([2]; Mus musculus, 1 h, 10 mg/kg) [%] | inhibition in vivo at 25 mg/kg ([2]; Mus musculus, 1 h, 25 mg/kg) [%] |
| --- | --- | --- | --- | --- | --- | --- | --- |
|  | COc1cccc(-c2cn(-c3ccc(C#N)cc3)cc2-c2ccncc2)c1 [compound 18] | 23 | 24 | 60 | 15 |  |  |
| 49 | Fc1ccc(-c2c[nH]c(CCCc3ccccc3)c2-c2ccncc2)cc1 [compound 28, 4-(4-Fluorophenyl)-2-(3-phenylpropyl)-3-(4-pyridyl)pyrrole] |  |  |  | 3.5 | 10 | 10 |
| 38 | CC(=O)Nc1ccc(-n2cc(-c3ccc(F)cc3)c(-c3ccncc3)c2CCCc2ccccc2)cc1 [compound 32, 1-(4-Acetoaminophenyl)-4-(4-fluorophenyl)-2-(3-phenylpropyl)-3-(4-pyridyl)pyrrole] |  |  |  | 5 | 48 |  |
|  | COc1cccc(-c2cn(C)cc2-c2ccncc2)c1 [compound 14] | 43 | 41 | 71 | 55 |  |  |
